# According to publication PMC8795738, “The Tarantula Venom Peptide Eo1a Binds to the Domain II S3-S4 Extracellular Loop of Voltage-Gated Sodium Channel NaV1.8 to Enhance Activation” (Frontiers in Pharmacology, 2022):
# Where a SMILES comes first, the peptide text is derived from it. Bridges are numbered along the chain shown (N, C = ends).
# Legend:
# [1] = test system: NaV1.1; assay: I-V protocol, whole-cell patch-clamp, NaV1.1; type: cell-based, human; settings: Eo1a 10 μM
# Description: (§1) Human Embryonic Kidney (HEK) 293 cells stably expressing human NaV1.1 to NaV1.7/β1 (SB Drug Discovery, Glasgow, United Kingdom), Chinese Hamster Ovary (CHO) cells stably expressing human NaV1.8/β3 in a tetracycline-inducible system (ChanTest, Cleveland, OH, United States), and HEK293 cells stably expressing rat transient receptor potential vanilloid 1 (TRPV1) were cultured as previously described ([Yin et al., 2020]). Human KV2.1 and NaV1.7 mutants were transiently transfected into HEK293 cells stably expressing β1/β2 using Lipofectamine 2000 (Thermo Fisher Scientific, Scoresby, VIC, Australia) and used for patch-clamp experiments 48 h after transfection. Cells were grown in an incubator at 37°C with 5% CO2 and passaged every 3–4 d (at 70–80% confluency) using TrypLE Express (Thermo Fisher Scientific).
# (§2) Automated whole-cell patch-clamp recordings were performed with a QPatch-16 automated electrophysiology platform (Sophion Bioscience, Ballerup, Denmark) using single-hole (QPlate 16 with a standard resistance of 2 ± 0.4 MΩ) or multi-hole (QPlate 16X with a standard resistance 0.2 ± 0.04 MΩ, NaV1.8 only) as previously described ([McMahon et al., 2020]).
# (§3) The extracellular solution (ECS) consisted of (in mM) 145 NaCl (replaced with 70 choline chloride for NaV1.4, NaV1.5 and NaV1.7), 4 KCl, 2 CaCl2, 1 MgCl2, 10 HEPES, and 10 glucose, pH to 7.4 with NaOH (adjusted to 305 mOsm/L with sucrose). For NaV recordings the intracellular solution (ICS) consisted of (in mM) 140 CsF, 1 EGTA, 5 CsOH, 10 HEPES, and 10 NaCl, pH to 7.3 with CsOH (adjusted to 320 mOsm/L with sucrose). For KV2.1 recordings the ICS consisted of (in mM) 50 KCl, 60 KF, 10 EGTA, 10 HEPES, 10 NaCl pH to 7.3 with KOH (adjusted to 320 mOsm/L with sucrose). TTX (1 μM) was added to the ECS for NaV1.8 recordings to inhibit background endogenous TTX sensitive current in CHO cells.
# (§4) I-V curves were obtained with a holding potential of −90 mV followed by a series of 500 ms step pulses that ranged from −110 to +80 mV in 5-mV increments (repetition interval 5 s) before and after 5 min incubation with Eo1a (10 μM). Conductance-voltage (G-V) curves were obtained by calculating the conductance (G) at each voltage (V) using equation G = I/(V − V rev ), where V rev is the reversal potential. G-V curves were fitted with a Boltzmann equation. […]
# (§5) The time constant of fast inactivation (τ) was computed by fitting the current decay traces with a single exponential function using QPatch Assay Software 5.6 (Sophion). The time to peak was calculated from pulse onset to peak inward current using QPatch Assay Software 5.6 (Sophion).
# [2] = test system: NaV1.2; assay: I-V protocol, whole-cell patch-clamp, NaV1.2; type: cell-based, human; settings: Eo1a 10 μM
# Description: as §1, §2
# as §3, with “TTX (1 μM) was added to the ECS for NaV1.8 recordings to inhibit background endogenous TTX sensitive current in CHO cells.” left out
# as §5
# [3] = test system: NaV1.7; assay: I-V protocol, whole-cell patch-clamp, NaV1.7; type: cell-based, human; settings: Eo1a 10 μM
# Description: as §1, §2, §3, §4, §5
# [4] = target: NaV1.8 (Homo sapiens, UniProt Q9Y5Y9); assay: I-V protocol, whole-cell patch-clamp, NaV1.8; type: cell-based; settings: Eo1a 10 μM
# Chain of NaV1.8 (Q9Y5Y9 whole entry): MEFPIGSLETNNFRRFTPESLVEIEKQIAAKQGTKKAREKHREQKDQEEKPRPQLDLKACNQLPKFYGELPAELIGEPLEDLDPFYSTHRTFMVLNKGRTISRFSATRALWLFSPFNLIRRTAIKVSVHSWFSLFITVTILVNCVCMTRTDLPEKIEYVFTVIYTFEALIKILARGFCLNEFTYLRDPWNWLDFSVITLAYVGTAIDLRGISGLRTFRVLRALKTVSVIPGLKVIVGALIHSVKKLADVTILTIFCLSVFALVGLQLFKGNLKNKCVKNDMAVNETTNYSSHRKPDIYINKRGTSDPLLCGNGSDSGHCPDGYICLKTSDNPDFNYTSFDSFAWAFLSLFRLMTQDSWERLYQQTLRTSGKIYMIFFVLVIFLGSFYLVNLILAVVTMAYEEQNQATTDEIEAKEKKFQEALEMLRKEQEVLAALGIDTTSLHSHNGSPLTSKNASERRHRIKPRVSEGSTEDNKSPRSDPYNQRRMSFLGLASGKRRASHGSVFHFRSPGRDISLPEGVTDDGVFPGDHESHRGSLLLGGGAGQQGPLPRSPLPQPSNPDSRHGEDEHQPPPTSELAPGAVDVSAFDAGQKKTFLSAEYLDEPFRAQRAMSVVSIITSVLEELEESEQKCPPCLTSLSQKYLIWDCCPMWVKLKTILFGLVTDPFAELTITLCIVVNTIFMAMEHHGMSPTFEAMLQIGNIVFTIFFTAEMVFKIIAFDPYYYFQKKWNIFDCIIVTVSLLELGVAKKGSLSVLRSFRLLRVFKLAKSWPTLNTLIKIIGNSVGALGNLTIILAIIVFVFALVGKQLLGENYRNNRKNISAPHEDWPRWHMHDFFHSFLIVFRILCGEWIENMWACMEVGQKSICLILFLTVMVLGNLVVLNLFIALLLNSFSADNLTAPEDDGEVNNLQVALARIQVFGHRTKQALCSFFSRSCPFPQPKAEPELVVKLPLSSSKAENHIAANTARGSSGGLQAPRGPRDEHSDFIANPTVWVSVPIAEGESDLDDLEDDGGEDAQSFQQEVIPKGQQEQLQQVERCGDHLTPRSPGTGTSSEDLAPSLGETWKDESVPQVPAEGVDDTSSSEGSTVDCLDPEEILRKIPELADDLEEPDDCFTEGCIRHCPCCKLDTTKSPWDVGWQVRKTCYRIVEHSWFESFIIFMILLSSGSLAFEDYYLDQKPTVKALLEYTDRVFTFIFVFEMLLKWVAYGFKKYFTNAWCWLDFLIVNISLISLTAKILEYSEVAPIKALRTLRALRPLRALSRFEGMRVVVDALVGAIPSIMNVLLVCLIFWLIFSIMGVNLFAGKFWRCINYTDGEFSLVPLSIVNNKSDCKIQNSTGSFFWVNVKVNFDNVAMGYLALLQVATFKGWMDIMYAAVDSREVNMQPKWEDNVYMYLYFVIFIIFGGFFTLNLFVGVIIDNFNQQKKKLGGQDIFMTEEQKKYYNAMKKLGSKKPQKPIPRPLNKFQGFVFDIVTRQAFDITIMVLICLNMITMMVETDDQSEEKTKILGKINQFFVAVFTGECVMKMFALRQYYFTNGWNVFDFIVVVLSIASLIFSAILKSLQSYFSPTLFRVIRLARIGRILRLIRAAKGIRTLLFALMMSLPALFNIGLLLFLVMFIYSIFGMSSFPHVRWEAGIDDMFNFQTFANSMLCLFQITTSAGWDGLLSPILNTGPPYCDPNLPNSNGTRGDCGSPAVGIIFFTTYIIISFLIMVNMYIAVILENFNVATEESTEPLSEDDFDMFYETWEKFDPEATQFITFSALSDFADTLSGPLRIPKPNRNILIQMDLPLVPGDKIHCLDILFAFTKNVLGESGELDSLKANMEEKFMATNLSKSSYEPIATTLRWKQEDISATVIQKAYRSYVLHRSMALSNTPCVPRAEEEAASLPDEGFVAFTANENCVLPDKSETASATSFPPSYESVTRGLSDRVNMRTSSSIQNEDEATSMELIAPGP
# Description: as §1, §2, §3
# I-V curves were obtained with a holding potential of −90 mV followed by a series of 500 ms step pulses that ranged from −110 to +80 mV in 5-mV increments (repetition interval 5 s) before and after 5 min incubation with Eo1a (10 μM). Conductance-voltage (G-V) curves were obtained by calculating the conductance (G) at each voltage (V) using equation G = I/(V − V rev ), where V rev is the reversal potential. G-V curves were fitted with a Boltzmann equation. The voltage dependence of steady-state fast inactivation was examined using a 10-ms pulse of −20 mV (+10 mV for NaV1.8) immediately after the 500-ms step above to assess the available non-inactivated channels.
# as §5
# [5] = test system: TRPV1; assay: TRPV1 calcium assay (FLIPR); type: cell-based; settings: Eo1a 10 μM, HEK293, rat TRPV1, Calcium 4 dye, 300 s, compared with capsaicin 300 nM, n = 3 wells
# Description: as §1
# The activity of Eo1a at rTRPV1 was assessed using the assay described previously ([Yin et al., 2020]). Briefly, the TRPV1 activator capsaicin (300 nM) and Eo1a (10 μM) were added to cells loaded with Calcium 4 no-wash dye (Molecular Devices) and changes in fluorescence were assessed using a FLIPR^TETRA (excitation 470–495 nm, emission 515–575 nm) every 1 s for 300 s. Fluorescence responses were normalized to baseline fluorescence (ΔF/F) and plotted versus time using ScreenWorks 3.2.0.14.
# [6] = test system: NaV1.7 with DII S1-S2 loop of NaV1.8; assay: Voltage-dependence of activation, NaV1.7/NaV1.8 chimera DII S1-S2; type: cell-based, human; settings: Eo1a 10 μM; NaV1.7 with NaV1.8 DII S1-S2; HEK293 β1/β2, transient; mean ± SEM, n = 3–6 cells
# Description: as §1
# (§6) Wild-type (WT) hNaV1.7 cDNA (NM_002,977, a gift from Dr James Cox, University College London) was subjected to in vitro site-directed mutagenesis using the QuikChange™ XL mutagenesis kit (Agilent Technologies) following the manufacturer’s instructions. NaV1.7 mutants were generated by substituting the domain II (DII) S1-S2 loop, the DII S3-S4 loop, the domain IV (DIV) S1-S2 loop and the DIV S3-S4 loop in NaV1.7 with the corresponding regions of NaV1.8. The mutations were verified by sequencing at the Brisbane node of the Australian Genome Research Facility. […]
# [7] = test system: NaV1.7 with DIV S3-S4 loop of NaV1.8; assay: Voltage-dependence of activation, NaV1.7/NaV1.8 chimera DIV S3-S4; type: cell-based, human; settings: Eo1a 10 μM; NaV1.7 with NaV1.8 DIV S3-S4; HEK293 β1/β2, transient; mean ± SEM, n = 3–6 cells
# Description: as §1, §6
structure (smiles),measurement,setting,value
"CC[C@H](C)[C@@H]1NC(=O)[C@H](CCCNC(=N)N)NC(=O)[C@@H]2CSSC[C@@H]3NC(=O)CNC(=O)CNC(=O)[C@H](CC(C)C)NC(=O)[C@H](Cc4ccccc4)NC(=O)[C@H](Cc4c[nH]c5ccccc45)NC(=O)[C@H](CCCNC(=N)N)NC(=O)[C@@H](NC(=O)[C@@H](N)CC(=O)O)CSSC[C@H](NC(=O)[C@H](CSSC[C@@H](C(=O)N[C@@H](C)C(=O)N[C@@H](Cc4c[nH]c5ccccc45)C(=O)N[C@@H](CC(=O)O)C(=O)NCC(=O)N[C@H](C(=O)N[C@@H](Cc4ccccc4)C(N)=O)[C@@H](C)O)NC(=O)[C@H](Cc4ccc(O)cc4)NC(=O)[C@H](CCCCN)NC(=O)[C@H]([C@@H](C)CC)NC(=O)[C@H](Cc4ccc(O)cc4)NC(=O)CNC(=O)[C@H](CC(=O)O)NC1=O)NC(=O)[C@H](CC(=O)O)NC(=O)[C@H](CO)NC(=O)[C@H](CC(=O)O)NC(=O)[C@H](CCCCN)NC(=O)[C@H](CO)NC3=O)C(=O)N[C@@H](CCCCN)C(=O)N[C@@H](Cc1c[nH]cn1)C(=O)N[C@@H](CC(C)C)C(=O)N[C@@H](C)C(=O)N2 [Eo1a] (H-DCRWFLGGCSKDSDCCKHLACRIDGYIKYCAWDGTF-NH2; disulfide 2-16, 9-21, 15-30 (inferred); N-terminus assumed)",peak current I/I0,"[1]; 5 min, peak from I-V protocol at any voltage, normalised to buffer control, HEK293 hNaV1.1/β1, mean ± SEM, n = 4–6 cells",0.89 ± 0.03
same,V1/2 activation,"[1]; NaV1.1, 5 min, control −21.5 ± 1.5 mV, mean ± SEM, n = 4–6",−24.4 ± 2.1 mV
same,V1/2 inactivation (steady-state fast inactivation),"[1]; NaV1.1, 5 min, control −55.0 ± 1.1 mV, mean ± SEM, n = 4–6",−57.8 ± 2.0
same,effect on inactivation kinetics,"[1]; NaV1.1, test pulse −20 mV",minimal effect
same,V1/2 activation,"[2]; 5 min, control −15.9 ± 1.2 mV, *p < 0.05, mean ± SEM, n = 4–6",−21.3 mV
same,V1/2 inactivation (steady-state fast inactivation),"[2]; 5 min, control −54.6 ± 1.6 mV, mean ± SEM, n = 4–6",−52.7 ± 0.5
same,effect on inactivation kinetics,[2]; test pulse −20 mV,minimal effect
same,peak current I/I0,"[3]; 5 min, peak from I-V protocol at any voltage, normalised to buffer control, HEK293 hNaV1.7/β1, mean ± SEM, n = 4–6 cells",0.63 ± 0.10
same,V1/2 activation,"[3]; NaV1.7, 5 min, control −26.1 ± 1.5 mV, mean ± SEM, n = 4–6",−32.9 ± 2.9 mV
same,V1/2 inactivation (steady-state fast inactivation),"[3]; NaV1.7, 5 min, control −65.5 ± 1.4 mV, mean ± SEM, n = 4–6",−69.1 ± 4.3
same,effect on fast inactivation,"[3]; NaV1.7, test pulse −20 mV",delayed fast-inactivation
same,ΔV50 voltage-dependence of steady-state fast inactivation,"[4]; 5 min, CHO cells, hNaV1.8/β3, 10-ms pulse to +10 mV after 500-ms step, hyperpolarising shift, mean ± SEM, n = 4 cells",–15.5 ± 1.8 mV
same,ΔV50 voltage-dependence of activation,"[4]; 5 min, CHO cells, hNaV1.8/β3, Boltzmann fit, hyperpolarising shift vs before addition, mean ± SEM, n = 4 cells",–20.5 ± 1.2 mV
same,peak current I/I0,"[4]; 5 min, peak from I-V protocol at any voltage, normalised to buffer control, CHO hNaV1.8/β3, mean ± SEM, n = 4–6 cells",1.8 ± 0.08
same,window current,"[4]; NaV1.8, n = 4 cells",comparatively unchanged
same,activation kinetics (time to peak),"[4]; NaV1.8, potentials between −5 mV and +45 mV, n = 4 cells, two-way ANOVA",without significantly altering
same,fast inactivation kinetics (time constant),"[4]; NaV1.8, single exponential fit, −5 mV to +45 mV, n = 4 cells, two-way ANOVA",without significantly altering
same,V1/2 activation,"[4]; NaV1.8, 5 min, control +7.0 ± 1.8 mV, *p < 0.05, mean ± SEM, n = 4–6",−13.5 mV
same,V1/2 inactivation (steady-state fast inactivation),"[4]; NaV1.8, 5 min, control −27.4 ± 2.7 mV, *p < 0.05, mean ± SEM, n = 4–6",−42.9 ± 2.1*
same,activity at TRPV1 (Ca2+ dye fluorescence over baseline),[5],minimal activity
same,ΔV1/2 activation,[6],−3.7 ± 0.5 mV
same,ΔV1/2 activation,[7],−6.7 ± 0.5 mV
